Source: patent publication US6506901B2, “Substituted 2-(S)-hydroxy-3-(piperidin-4-yl-methylamino)-propyl ethers and substituted 2-aryl-2-(R)-hydroxy-1-(piperidin-4-yl-methyl)-ethylamine β-3 adrenergic receptor agonists” (Wyeth, priority 2000, dated 2003)
Where a name gives a salt, the structure may show the parent alone.

Tests used:
β3 human transgenic mice = experiment: Thermogenesis (Oxymax indirect calorimeter) in β3 transgenic (Tg) mice; format: in vivo, mice (FVB); conditions: percent increase in thermogenesis over baseline; for change in vivo at 10 mg/kg: Mus musculus, ip, IP 10 mg/kg
From the text: Evaluation in β3 Knockout(KO) and β3 Transgenic(Tg) Mice: The ability of compounds of this invention to treat or inhibit disorders related to insulin resistance or hyperglycemia was also confirmed with representative compounds of this invention in an in vivo standard pharmacological test procedure which compared thermogenesis in transgenic mice (Tg mice) and β3-knockout mice (KO mice).
β3-Adrenergic receptor knockout mice and β3 human transgenic mice are created on an inbred FVB background (Susulic, V. S., et.al., J. Biol. Chem., 1995, 270 (49), 29483-29492). Female FVB β3 transgenic and β3 knockout mice were used to determine in vivo activity and selectivity of β3 agonists. […] These compounds were also selective in being 100-fold less responsive and partial agonists when tested in β1 and β2 transfected CHO cells. Compounds were tested for increased thermogenesis using the Oxymax indirect calorimeter (Columbus Instruments, Columbus, Ohio). Fed animals were placed in chambers for 3 hours to obtain baseline O2 and CO2 values. Eight fed mice were weighed in pairs and placed in 4 chambers, two per chamber. The relative gas content of each chamber was sampled and recorded at 10 to 12 minute intervals. For each sample, energy expenditure values were calculated by the Oxymax and expressed as kcal/hr. After 3 hours of baseline measurement, the mice were removed, treated and replaced in the chambers. The β3 agonists were injected at doses between 0.1 and 20 mg/kg i.p. and between 1.0 and 30 mg/kg for oral administration. Compounds in 10 mM or 10 mg/ml DMSO solutions were suspended in 0.5% methylcellulose: 0.1% tween-80 and injected i.p. or administered by oral gavage. Some compounds were suspended in 5.0% tween-80 for oral administration. Post-treatment kcal/hr values were taken between 40 minutes and 2.5 hours later. The 6 to 10 sample sections of the pre-treatment and post-treatment periods, which appear to best represent stable resting thermogenesis, were selected. Each of these sample values was corrected for body weight and used such that each pair of mice serves as its own baseline for both T test and percent increase in thermogenesis calculations. An ANOVA and a one sided T test (H1: Post>Pre) are performed using the SAS software modified to down weight extreme values. In a separate set of calculations, values that appear to be too high to represent resting thermogenesis are discarded (activity monitor sampling associated spikes in thermogenesis with ambulatory activity). The mean baseline value for each chamber is subtracted from mean post-treatment value for that chamber. This baseline-subtracted value is divided by the mean baseline value and multiplied by 100 to obtain a percent increase in thermogenesis for each chamber. The combined mean percent increase, standard deviation, and standard error of the mean for each chamber is calculated. Compounds were considered active if they were able to produce a statistically significant 15% increase in thermogenesis in β3 transgenic mice and no significant increase in β3 knockout mice.

human β3 receptors = target: T1, human β3 receptors (Homo sapiens, UniProt P13945); experiment: cAMP response (SPA) in CHO cells expressing cloned human β3 adrenergic receptor; format: cell-based; conditions: for EC50: CHO cells expressing human β3 receptor, cAMP, 30 min incubation, 10^−9 M to 10^−5 M; for IA(β3): maximal response compared to the maximal response of isoproterenol at 10^−5 M
T1 construct: Full length β3 AR clones (402 amino acids) containing the last 6 amino acids of hβ3—AR; expressed in transfected cells; host or cells: CHO cells
In short: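 CHO cells transfected with cloned human β3-AR were incubated with compound at 37° C for 30 min, stopped with 0.2N HCl and neutralized. cAMP was measured by SPA. Activity is expressed as per cent of the maximal isoproterenol (10^−5 M) response.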

T1 sequence (P13945 whole entry): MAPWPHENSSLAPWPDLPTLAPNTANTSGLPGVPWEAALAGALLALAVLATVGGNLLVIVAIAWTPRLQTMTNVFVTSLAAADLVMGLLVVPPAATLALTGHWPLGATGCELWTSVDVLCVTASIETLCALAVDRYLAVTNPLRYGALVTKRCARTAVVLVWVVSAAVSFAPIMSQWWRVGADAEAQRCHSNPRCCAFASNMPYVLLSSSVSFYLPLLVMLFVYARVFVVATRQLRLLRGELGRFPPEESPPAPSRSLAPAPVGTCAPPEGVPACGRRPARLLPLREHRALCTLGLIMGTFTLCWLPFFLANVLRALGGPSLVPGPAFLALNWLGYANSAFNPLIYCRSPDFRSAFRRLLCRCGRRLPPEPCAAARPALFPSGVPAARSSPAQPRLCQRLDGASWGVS

melting point	SMILES	change in vivo at 10 mg/kg (β3 human transgenic mice; mouse type homo) [%]	further results
171 °C	O/N=C1\c2ccccc2-c2c(OC[C@@H](O)CNCC3CCN(c4ccnc5cc(C(F)(F)F)ccc45)CC3)cccc21 (as salt: hydrochloride) [Example 4, 4-((2S)-2-Hydroxy-3-{[1-(7-trifluoromethyl-quinolin-4-yl)-piperidin-4-ylmethyl]-amino}-propoxy)-fluoren-9-one Oxime]	–	–
137 to 138 °C	O[C@@H](CNCC1CCN(c2cc(C(F)(F)F)ccn2)CC1)COc1cccc2[nH]c3ccccc3c12 [Example 5, (2S)-1-(9H-Carbazol-4-yloxy)-3-[(4′-trifluoromethyl-3,4,5,6-tetrahydro-2H-[1,2′]bipyridinyl-4-ylmethyl)-amino]-propan-2-ol]	–	–
–	O[C@@H](CNCC1CCN(CCC(F)(F)F)CC1)COc1cccc2[nH]c3ccccc3c12 [Example 10, (2S)-1-(9H-Carbazol-4-yloxy)-3-{[1-(3,3,3-trifluoro-propyl)-piperidin-4-ylmethyl]-amino}-propan-2-ol]	–	change in vivo at 10 mg/kg (β3 human transgenic mice; mouse type hetero): -15%
79 °C	O[C@@H](CNCC1CCN(CCC(F)(F)F)CC1)COc1ccc(Br)c2[nH]c3ccccc3c12 [Example 16, (2S)-1-(1-Bromo-9H-carbazol-4-yloxy)-3-{[1-(3,3,3-trifluoro-propyl)-piperidin-4-ylmethyl]-amino}-propan-2-ol]	–	–
110 °C	OCCCCCCCCCCCCN1CCC(CNC[C@H](O)COc2cccc3[nH]c4ccccc4c23)CC1 [Example 30, 12-(4-{[(2S)-3-(9H-Carbazol-4-yloxy)-2-hydroxy-propylamino]-methyl}-piperidin-1-yl)-dodecan-1-ol]	–	EC50 (human β3 receptors): 1240 nM; IA(β3) (human β3 receptors): 0.53
238 to 240 °C (dec.)	O=C(O)c1cccc(NC(=O)N2CCC(CNC[C@H](O)COc3cccc4[nH]c5ccccc5c34)CC2)c1 [Example 51, 3-[(4-{[(2S)-3-(9H-Carbazol-4-yloxy)-2-hydroxy-propylamino]-methyl}-piperidine-1-carbonyl)-amino]-benzoic Acid]	–	–
–	CCCCCCNC(=O)Nc1ccc(S(=O)(=O)N2CCC(CNC[C@H](O)COc3cccc4[nH]c5ccccc5c34)CC2)cc1 [Example 58, 1-[4-(4-{[(2S)-3-(9H-Carbazol-4-yloxy)-2-hydroxy-propylamino]-methyl}-piperidine-1-sulfonyl)-phenyl]-3-hexyl-urea]	–	change in vivo at 10 mg/kg (β3 human transgenic mice; mouse type hetero): -3%
–	CCCCCCNC(=O)Nc1ccc(S(=O)(=O)N2CCC(CNC[C@H](O)COc3ccc(O)cc3)CC2)cc1 [Example 59, 1-Hexyl-3-[4-(4-{[(2S)-2-hydroa-3-(4-hydroxy-phenoxy)-propylamino]-methyl}-piperidine-1-sulfonyl)-phenyl]-urea]	5	–
–	O=C(Nc1ccccc1)Nc1ccc(S(=O)(=O)N2CCC(CNC[C@H](O)COc3ccc(O)cc3)CC2)cc1 [Example 63, 1-[4-(4-{[(2S)-2-Hydroxy-3-(4-hydroxy-phenoxy)-propylamino]-methyl}-piperidine-1-sulfonyl)-phenyl]-3-phenyl-urea]	3	–
189 °C	O=C(Nc1ccc(S(=O)(=O)N2CCC(CNC[C@H](O)COc3ccc(O)cc3)CC2)cc1)Nc1ccccn1 [Example 66, 1-[4-(4-{[(2S)-2-Hydroxy-3-(4-hydroxy-phenoxy)-proplamino]-methyl}-piperidine-1-sulfonyl)-phenyl]-3-pyridin-2-yl-urea]	4	–
–	CCCCCCCCNC(=O)Nc1ccc(S(=O)(=O)N2CCC(CNC[C@H](O)COc3ccc(O)cc3)CC2)cc1 [Example 69, 1-[4-(4-{[(2S)-2-Hydroxy-3-(4-hydroxy-phenoxy)-propylamino]-methyl}-piperidine-1-sulfonyl)-phenyl]-3-octyl-urea]	24	change in vivo at 10 mg/kg (β3 human transgenic mice; mouse type hetero): 24%; Thermogenesis, Transgenic Mice, Gavage % (β3 human transgenic mice; mouse type hetero, gavage 30 mg/kg): 14%
–	CCCCCCCCNC(=O)Nc1ccc(S(=O)(=O)N2CCC(CNC[C@H](O)COc3ccc(O)c4c3CCC(=O)N4)CC2)cc1 [Example 74, 1-[4-(4-{[(2S)-2-Hydroxy-3-(8-hydroxy-2-oxo-1,2,3,4-tetrahydro-quinolin-5-yloxy)-propylamino]-methyl}-piperidine-1-sulfonyl)-phenyl]-3-octyl-urea]	18	–
–	O=C(NCCCc1cccs1)Nc1ccc(S(=O)(=O)N2CCC(CNC[C@H](O)COc3ccc(O)cc3)CC2)cc1 [Example 75, 1-[4-(4-1{[(2S)-2-Hydroxy-3-(4-hydroxy-phenoxy)-propylamino]-methyl}-piperidine-1-sulfonyl)-phenyl]-3-(3-thiophen-2-yl-propyl)-urea]	5	–
–	O=C(NCc1cc(F)ccc1F)Nc1ccc(S(=O)(=O)N2CCC(CNC[C@H](O)COc3ccc(O)cc3)CC2)cc1 [Example 77, 1-(2,5-Difluoro-benzyl)-3-[4-(4-{[(2S)-2-hydroxy-3-(4-hydroxy-phenoxy)-propylamino]-methyl}-piperidine-1-sulfonyl)-phenyl]-urea]	4	–
–	CS(=O)(=O)Nc1cc(OC[C@@H](O)CNCC2CCN(S(=O)(=O)c3ccc(NC(=O)NCc4cc(F)ccc4F)cc3)CC2)ccc1O [Example 79, N-(5-{(2S)-3-[(1-{4-[3-(2,5-Difluoro-benzyl)-ureido]-benzenesulfonyl}-piperidin-4-ylmethyl)-amino]-2-hydroxy-propoxy}-2-hydroxy-phenyl)-methanesulfonamide]	10	–
169 to 171 °C	O=S(=O)(c1ccc(-n2cccn2)cc1)N1CCC(CNC[C@H](O)COc2ccc(O)cc2)CC1 [Example 93, 4-(2-Hydroxy-3-{[1-(4-pyrazol-1-yl-benzenesulfonyl)-piperidin-4-ylmethyl]-amino}-propoxy)-phenol]	–	EC50 (human β3 receptors): 347 nM; IA(β3) (human β3 receptors): 0.99
